Experiments:
[1] = system: HDAC (nuclear fraction of Hela cells); experiment: Assay of enzyme inhibition of HDAC (BIOMOL Kit); type: biochemical; conditions: substrate 200 μM, 15 min at RT
Protocol: 2.2 Assay of Enzyme Inhibition of HDAC
The in-vitro activity of HDAC inhibitors was assayed using a BIOMOL Kit, according to the instructions from the manufacturer (Biomolecular Research Laborator). 15 μl of 30× diluted nuclear fraction of Hela cells, was diluted to 50 μl with the assay buffer containing the HDAC inhibitor and the substrate (lysine with acetylated amino group on the side chain) at a concentration of 200 μM. The samples were incubated for 15 min at RT and then exposed to a developer (10 min at RT). In this last step a fluorophore was produced, whose fluorescence was measured using an excitation wavelength of 355 nm and an emission at 460 nm. The IC50 was calculated using GraphPad Software.

K562 cells = experiment: Cell growth, CellTiter-Glo Luminescent Cell Viability Assay, K562; type: cell-based; conditions: Homo sapiens, 72 h incubation, read-out: IC50 antiproliferative assay K562
From the text: (§1) CellTiter-Glo® Luminescent Cell Viability Assay (Promega) is a homogeneous method of determining the number of viable cells in culture based on quantitation of the present ATP, which indicates the presence of metabolically active cells. The homogeneous assay procedure involves addition of a single reagent (CellTiter-Glo® Reagent) directly to the cells, which leads to cell lysis and generation of a luminescent signal proportional to the amount of the ATP and the number of cells present in culture. The assay relies on the properties of a proprietary thermostable luciferase (Ultra-Glo® recombinant luciferase), which generates a luminescent signal.
(§2) K562, A549 and HCT-116 cells, in exponential growth, were incubated for 72 h with different concentrations of the inhibitors. After 72 h, a volume of CellTiter-Glo® Reagent equal to the volume of cell culture medium was added. The content was mixed for 2 min to induce cell lysis. The luminescence was recorded after further 10 min at RT in order to obtain a stabilized luminescent signal.
(§3) The IC50 was calculated using GraphPad Software.
(§4) IC50 results were allocated to one of 3 ranges as follows: Range A: IC50≦1.0 μM; Range B: from 1.0 to 3.0 μM; Range C: IC50≧3.0 μM.

A549 cells = experiment: Cell growth, CellTiter-Glo Luminescent Cell Viability Assay, A549; type: cell-based; conditions: Homo sapiens, 72 h incubation, read-out: IC50 antiproliferative assay A549
From the text: as §1, §2, §3, §4

HCT-116 cells = experiment: Cell growth, CellTiter-Glo Luminescent Cell Viability Assay, HCT-116; type: cell-based; conditions: Homo sapiens, HCT116 cells, 72 h incubation, read-out: IC50 antiproliferative assay HCT116
From the text: as §1, §2, §3, §4

Row | SMILES | IC50 [1] [nM] | IC50 (K562 cells) [nM] | IC50 (A549 cells) [nM] | IC50 (HCT-116 cells) [nM]
1 | O=C(/C=C/c1ccc2c(c1)C(=NOCc1ccccc1)CC1(CCN(Cc3ccccc3)CC1)O2)NO (racemic) [Example 17, (E)-3-{1′-Benzyl-4-benzyloxyimino-spiro[chromane-2,4′-piperidine]-6-yl}-N-hydroxy-acrylamide] | > 1000 | 1000 to 3000 | 1000 to 3000 | 1000 to 3000
2 | CON=C1CC2(CCN(Cc3ccccc3)CC2)Oc2ccc(/C=C/C(=O)NO)cc21 (racemic) [Example 18, (E)-3-{1′-Benzyl-4-methyloxyimino-spiro[chromane-2,4′-piperidine]-6-yl}-N-hydroxy-acrylamide] | 100 to 1000 | 1000 to 3000 | 1000 to 3000 | ≤ 1000
3 | O=C(/C=C/c1ccc2c(c1)C(=O)CC1(CCNCC1)O2)NO [Example 1, (E)-3-{4-oxo-spiro[chromane-2,4′-piperidine]-6-yl}-N-hydroxy-acrylamide] | < 100 | ≥ 3000 | 1000 to 3000 | 1000 to 3000
4 | O=C(/C=C/c1ccc2c(c1)C(=O)CC1(CCN(Cc3ccccc3)CC1)O2)NO [Example 2, (E)-3-{1′-Benzyl-4-oxo-spiro[chromane-2,4′-piperidine]-6-yl}-N-hydroxy-acrylamide] | 100 to 1000 | ≤ 1000 | ≤ 1000 | ≤ 1000
5 | CC(=O)N1CCC2(CC1)CC(=O)c1cc(/C=C/C(=O)NO)ccc1O2 [Example 3, (E)-3-{1′-Acetyl-4-oxo-spiro[chromane-2,4′-piperidine]-6-yl}-N-hydroxy-acrylamide] | 100 to 1000 | ≥ 3000 | ≥ 3000 | ≥ 3000
6 | O=C(/C=C/c1ccc2c(c1)C(=O)CC1(CCN(C(=O)c3ccccc3)CC1)O2)NO [Example 4, (E)-3-{1′-Benzoyl-4-oxo-spiro[chromane-2,4′-piperidine]-6-yl}-N-hydroxy-acrylamide] | 100 to 1000 | 1000 to 3000 | ≥ 3000 | 1000 to 3000
7 | CN1CCC2(CC1)CC(=O)c1cc(/C=C/C(=O)NO)ccc1O2 [Example 5, (E)-3-{1′-Methyl-4-oxo-spiro[chromane-2,4′-piperidine]-6-yl}-N-hydroxy-acrylamide] | 100 to 1000 | ≤ 1000 | 1000 to 3000 | ≤ 1000
8 | Cc1ccc(CCN2CCC3(CC2)CC(=O)c2cc(/C=C/C(=O)NO)ccc2O3)cc1 [Example 61, (E)-3-{1′-[2-(4-Methyl-phenyl)-ethyl]-4-oxo-spiro[chromane-2,4′-piperidine]-6-yl}-N-hydroxy-acrylamide] | < 100 |  |  | 
9 | O=C(/C=C/c1ccc2c(c1)C(=O)CC1(CCN(Cc3ccc4ccccc4n3)CC1)O2)NO [Example 65, (E)-3-{1′-(Quinolin-2-ylmethyl)-4-oxo-spiro[chromane-2,4′-piperidine]-6-yl}-N-hydroxy-acrylamide] | < 100 |  |  | 
10 | O=C(/C=C/c1ccc2c(c1)C(=O)CC1(CCN(Cc3cnc4ccccc4c3)CC1)O2)NO [Example 66, (E)-3-{1′-(Quinolin-3-ylmethyl)-4-oxo-spiro[chromane-2,4′-piperidine]-6-yl}-N-hydroxy-acrylamide] | 100 to 1000 |  |  | 
11 | O=C(/C=C/c1ccc2c(c1)C(=O)CC1(CCN(Cc3ccccc3-c3ccccc3)CC1)O2)NO [Example 67, (E)-3-{1′-(Biphenyl-2yl-methyl)-4-oxo-spiro[chromane-2,4′-piperidine]-6-yl}-N-hydroxy-acrylamide] | 100 to 1000 |  |  | 
12 | O=C(/C=C/c1ccc2c(c1)C(=O)CC1(CCN(C3CCCC3)CC1)O2)NO [Example 70, (E)-3-{1′-Cyclopentyl-4-oxo-spiro[chromane-2,4′-piperidine]-6-yl}-N-hydroxy-acrylamide] | 100 to 1000 |  |  | 
13 | O=C(/C=C/c1ccc2c(c1)C(=O)N(Cc1ccccc1)C1(CCNCC1)O2)NO [Example 82, (E)-3-{3,4-Dihydro-3-benzyl-4-oxo-spiro[2H-(1,3)-benzoxazine-2,4′-piperidin]-6-yl}-N-hydroxy-acrylamide] | < 100 |  |  | 

From patent publication US9115148B2, “Spirocyclic derivatives as histone deacetylase inhibitors” (DAC S.R.L., priority 2008, dated 2015)
